Here are results for 32 compounds from patent US7585859B2, “PDE4B inhibitors and uses therefor” (Plexxikon, Inc., priority 2004, dated 2009).

In assay [1] the target is T1, PDE4B: The catalytic domain of human PDE4B from S152-S528 (Homo sapiens, UniProt Q07343).
T1 construct: His6 (N); thrombin cleavage site (N); made in house; host or cells: E. coli
As to the kind of experiment: PDE4 IC50 determination by Scintillation Proximity Assay, PDE4B. The note with it: Table 3A, Formula III compounds; read-out: IC50 PDE4B. In kind it is biochemical. The gist of the method:
(§1)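 Enzyme was added to compound and [^3H]cAMP, then incubated 30 min at 30° (PDE4B 80 ng/ml; PDE4D 4 ng/ml). Product [^3H]AMP bound to SPA beads and was counted. IC50 was fitted by non-linear regression against DMSO and roflumilast controls.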
A general note: In a scintillation proximity assay essentially only radioactivity close to the scintillant gives light.

In a further assay the target is T2, PDE4D (Homo sapiens, UniProt Q08499).
T2 construct: PDE4D: The catalytic domain of human PDE4B from S3 16-V692; His6 (N); thrombin cleavage site (N); made in house; host or cells: E. coli
T2 sequence (Q08499 380-756): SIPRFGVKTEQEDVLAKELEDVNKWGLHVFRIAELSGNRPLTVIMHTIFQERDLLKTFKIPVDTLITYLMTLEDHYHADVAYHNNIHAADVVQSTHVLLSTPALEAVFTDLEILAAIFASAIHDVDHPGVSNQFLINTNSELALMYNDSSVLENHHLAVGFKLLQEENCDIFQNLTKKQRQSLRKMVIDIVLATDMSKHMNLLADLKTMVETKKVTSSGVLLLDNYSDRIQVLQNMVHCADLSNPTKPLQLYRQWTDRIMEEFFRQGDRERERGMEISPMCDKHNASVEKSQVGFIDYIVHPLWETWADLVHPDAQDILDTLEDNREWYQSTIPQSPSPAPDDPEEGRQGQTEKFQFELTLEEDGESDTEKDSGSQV
Nature of the assay: PDE4 IC50 determination by Scintillation Proximity Assay, PDE4D. The note with it: Table 3A, Formula III compounds; read-out: IC50 PDE4D. The class given is biochemical. The gist of the method: as §1

T1 sequence (Q07343 with tags, fused parts or gaps): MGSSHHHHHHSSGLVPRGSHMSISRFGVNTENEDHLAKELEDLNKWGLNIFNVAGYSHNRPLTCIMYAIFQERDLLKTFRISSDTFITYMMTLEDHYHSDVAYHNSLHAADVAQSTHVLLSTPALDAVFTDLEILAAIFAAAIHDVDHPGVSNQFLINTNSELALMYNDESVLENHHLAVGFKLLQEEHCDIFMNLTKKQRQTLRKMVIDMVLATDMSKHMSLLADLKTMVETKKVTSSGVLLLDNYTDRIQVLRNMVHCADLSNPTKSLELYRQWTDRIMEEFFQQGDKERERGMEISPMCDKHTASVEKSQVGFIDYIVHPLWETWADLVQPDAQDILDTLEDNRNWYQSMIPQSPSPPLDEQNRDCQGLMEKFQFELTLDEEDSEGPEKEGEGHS

One may read the IC50 as the concentration at which inhibition is half-maximal. Turning to `COc1cc(NS(=O)(=O)c2ccc(-c3ccon3)s2)c2ncccc2c1` [Compound 3-25, 5-Isoxazol-3-yl-thiophene-2-sulfonic acid (6-methoxy-quinolin-8-yl)-amide], the IC50 (in assay [1]; on PDE4D) was greater than 10 µM each time.
Consider `Cc1ccc2cccnc2c1NS(=O)(=O)c1ccc(-c2cc(C(F)(F)F)on2)s1` [Compound 3-26, 5-(5-Trifluoromethyl-isoxazol-3-yl)-thiophene-2-sulfonic acid (7-methyl-quinolin-8-yl)-amide], for which the half-maximal inhibitory concentration (IC50) (in assay [1]; at PDE4D) was greater than 10 µM each time.
As for `COc1cc(NS(=O)(=O)c2ccc(-c3cc(C(F)(F)F)on3)s2)c2ncccc2c1` [Compound 3-27, 5-(5-Trifluoromethyl-isoxazol-3-yl)-thiophene-2-sulfonic acid (6-methoxy-quinolin-8-yl)-amide], the IC50 (in assay [1]; on PDE4D) was greater than 10 µM throughout.
In the case of `O=S(=O)(Nc1cccc2cccnc12)c1ccc(-c2cc(C(F)(F)F)on2)s1` [Compound 3-28, 5-(5-Trifluoromethyl-isoxazol-3-yl)-thiophene-2-sulfonic acid quinolin-8-ylamide], the IC50 (in assay [1]; at PDE4D) was greater than 10 µM throughout.
Regarding `Cc1ccc2cccnc2c1NS(=O)(=O)c1ccc(-c2ccccn2)s1` [Compound 3-29, 5-Pyridin-2-yl-thiophene-2-sulfonic acid (7-methyl-quinolin-8-yl)-amide], the IC50 (in assay [1]; on PDE4D) was greater than 10 µM in each case.
For `O=S(=O)(Nc1cccc2cccnc12)c1ccc(-c2ccccn2)s1` [Compound 3-30, 5-Pyridin-2-yl-thiophene-2-sulfonic acid quinolin-8-ylamide], the IC50 (in assay [1]; at PDE4D) was greater than 10 µM throughout.
Take `COc1cc(NS(=O)(=O)c2ccc(-c3ccccn3)s2)c2ncccc2c1` [Compound 3-31, 5-Pyridin-2-yl-thiophene-2-sulfonic acid (6-methoxy-quinolin-8-yl)-amide]: the IC50 is less than 10 µM in assay [1] and greater than 10 µM at PDE4D.
The like results for `O=C(NCc1ccc(S(=O)(=O)Nc2cccc3cccnc23)s1)c1ccccc1` [Compound 3-32, N-[5-(Quinolin-8-ylsulfamoyl)-thiophen-2-ylmethyl]-benzamide] were, in that order, greater than 10 µM and greater than 10 µM.
The matching figures for `Cc1nc(-c2ccc(S(=O)(=O)Nc3cccc4cccnc34)s2)cs1` [Compound 3-33, 5-(2-Methyl-thiazol-4-yl)-thiophene-2-sulfonic acid quinolin-8-ylamide]: less than 10 µM and less than 10 µM.
The matching figures for `O=S(=O)(Nc1cccc2cccnc12)c1ccc(-c2cnco2)s1` [Compound 3-34, 5-Oxazol-5-yl-thiophene-2-sulfonic acid quinolin-8-ylamide]: less than 10 µM and less than 10 µM.
With `O=S(=O)(Nc1cccc2cccnc12)c1cc(S(=O)(=O)c2ccccc2)cs1` [Compound 3-37, 4-Benzenesulfonyl-thiophene-2-sulfonic acid quinolin-8-ylamide], the IC50 (in assay [1]; at PDE4D) was greater than 10 µM throughout.
Consider `Cc1ccc2cccnc2c1NS(=O)(=O)c1ccc(S(=O)(=O)c2ccccc2)s1` [Compound 3-38, 5-Benzenesulfonyl-thiophene-2-sulfonic acid (7-methyl-quinolin-8-yl)-amide], for which the IC50 (in assay [1]; at PDE4D) was greater than 10 µM in each case.
As to `Cc1ccc2cccnc2c1NS(=O)(=O)c1cc(S(=O)(=O)c2ccccc2)cs1` [Compound 3-39, 4-Benzenesulfonyl-thiophene-2-sulfonic acid (7-methyl-quinolin-8-yl)-amide], the IC50 (in assay [1]; at PDE4D) was greater than 10 µM throughout.
For the compound `O=S(=O)(Nc1cccc2cccnc12)c1ccc(S(=O)(=O)c2ccccc2)s1` [Compound 3-40, 5-Benzenesulfonyl-thiophene-2-sulfonic acid quinolin-8-ylamide], the half-maximal inhibitory concentration (IC50) (in assay [1]; at PDE4D) was greater than 10 µM in each case.
With `COc1cc(NS(=O)(=O)c2ccc(S(=O)(=O)c3ccccc3)s2)c2ncccc2c1` [Compound 3-41, 5-Benzenesulfonyl-thiophene-2-sulfonic acid (6-methoxy-quinolin-8-yl)-amide], the IC50 is less than 10 µM in assay [1] and greater than 10 µM on PDE4D.
The matching figures for `O=S(=O)(c1ccc(Br)s1)N(c1cccc2cccnc12)S(=O)(=O)c1ccc(Br)s1` [Compound 3-42]: greater than 10 µM and greater than 10 µM.
In the case of `COC(=O)c1ccc(S(=O)(=O)Nc2c(C)ccc3cccnc23)o1` [Compound 3-43, 5-(7-Methyl-quinolin-8-ylsulfamoyl)-furan-2-carboxylic acid methyl ester], the IC50 (in assay [1]; on PDE4D) was greater than 10 µM throughout.
Regarding `COC(=O)c1ccc(S(=O)(=O)Nc2cccc3cccnc23)o1` [Compound 3-44, 5-(Quinolin-8-ylsulfamoyl)-furan-2-carboxylic acid methyl ester], the IC50 (in assay [1]; on PDE4D) was greater than 10 µM throughout.
Consider `COC(=O)c1ccc(S(=O)(=O)Nc2cc(OC)cc3cccnc23)o1` [Compound 3-45, 5-(6-Methoxy-quinolin-8-ylsulfamoyl)-furan-2-carboxylic acid methyl ester], for which the IC50 (in assay [1]; at PDE4D) was greater than 10 µM in each case.
Take `Cc1ccc(S(=O)(=O)Nc2cccc3cccnc23)cc1` [Compound 3-46, 4-Methyl-N-quinolin-8-yl-benzenesulfonamide]: the IC50 (in assay [1]; on PDE4D) was greater than 10 µM in each case.
Take `Cc1ccc(S(=O)(=O)Nc2ccc(Br)c3cccnc23)cc1` [Compound 3-47, N-(5-Bromo-quinolin-8-yl)-4-methyl-benzenesulfonamide]: the half-inhibitory concentration (IC50) (in assay [1]; at PDE4D) was greater than 10 µM throughout.
In the case of `COc1cc(NS(=O)(=O)c2ccc(C)cc2)c2ncccc2c1` [Compound 3-48, N-(6-Methoxy-quinolin-8-yl)-4-methyl-benzenesulfonamide], the IC50 (in assay [1]; on PDE4D) was greater than 10 µM in each case.
`COc1cc(NS(=O)(=O)c2cc(F)ccc2C)c2ncccc2c1` [Compound 3-49, 5-Fluoro-N-(6-methoxy-quinolin-8-yl)-2-methyl-benzenesulfonamide]: the IC50 (in assay [1]; at PDE4D) was greater than 10 µM each time.
For the compound `COc1ccc(OC)c(S(=O)(=O)Nc2cc(OC)cc3cccnc23)c1` [Compound 3-51, 2,5-Dimethoxy-N-(6-methoxy-quinolin-8-yl)-benzenesulfonamide], the IC50 (in assay [1]; at PDE4D) was greater than 10 µM each time.
Turning to `COc1cc(NS(=O)(=O)c2ccc(C#N)cc2)c2ncccc2c1` [Compound 3-52, 4-Cyano-N-(6-methoxy-quinolin-8-yl)-benzenesulfonamide], the IC50 (in assay [1]; on PDE4D) was greater than 10 µM in each case.
Take `COc1ccc(S(=O)(=O)Nc2cc(OC)cc3cccnc23)cc1` [Compound 3-53, 4-Methoxy-N-(6-methoxy-quinolin-8-yl)-benzenesulfonamide]: the IC50 (in assay [1]; on PDE4D) was greater than 10 µM each time.
As for `COc1cc(NS(=O)(=O)Cc2ccccc2)c2ncccc2c1` [Compound 3-54, N-(6-Methoxy-quinolin-8-yl)-C-phenyl-methanesulfonamide], the IC50 (in assay [1]; at PDE4D) was greater than 10 µM in each case.
Regarding `COc1cc(NS(=O)(=O)c2ccc(F)cc2)c2ncccc2c1` [Compound 3-55, 4-Fluoro-N-(6-methoxy-quinolin-8-yl)-benzenesulfonamide], the IC50 (in assay [1]; at PDE4D) was greater than 10 µM throughout.
On to `COc1cc(NS(=O)(=O)c2cccc(F)c2)c2ncccc2c1` [Compound 3-56, 3-Fluoro-N-(6-methoxy-quinolin-8-yl)-benzenesulfonamide], for which the IC50 (in assay [1]; on PDE4D) was greater than 10 µM in each case.
For the compound `COc1cc(NS(=O)(=O)c2ccccc2C)c2ncccc2c1` [Compound 3-57, N-(6-Methoxy-quinolin-8-yl)-2-methyl-benzenesulfonamide], the half-inhibitory concentration (IC50) (in assay [1]; on PDE4D) was greater than 10 µM each time.
As for `COc1cc(NS(=O)(=O)c2cc(C)ccc2OC)c2ncccc2c1` [Compound 3-58, 2-Methoxy-N-(6-methoxy-quinolin-8-yl)-5-methyl-benzenesulfonamide], the IC50 (in assay [1]; at PDE4D) was greater than 10 µM each time.
Turning to `Cc1nccc(-c2cccc(S(=O)(=O)Nc3cccc4cccnc34)c2)n1` [Compound 3-66, 3-(2-Methyl-pyrimidin-4-yl)-N-quinolin-8-yl-benzenesulfonamide], the IC50 (in assay [1]; at PDE4D) was less than 10 µM each time.
